Results on 29 molecules are retold here after US20240366598A1, “GLUCOSE-DEPENDENT INSULINOTROPIC POLYPEPTIDE RECEPTOR ANTAGONISTS AND USES THEREOF” (Pfizer Inc., priority 2023, published 2024).

Each structure is given as a SMILES string.

In the assay the target is T1, human Glucose-dependent Insulinotropic Polypeptide Receptor (hGIPR) (Homo sapiens, UniProt P48546).
T1 sequence (P48546 22-466): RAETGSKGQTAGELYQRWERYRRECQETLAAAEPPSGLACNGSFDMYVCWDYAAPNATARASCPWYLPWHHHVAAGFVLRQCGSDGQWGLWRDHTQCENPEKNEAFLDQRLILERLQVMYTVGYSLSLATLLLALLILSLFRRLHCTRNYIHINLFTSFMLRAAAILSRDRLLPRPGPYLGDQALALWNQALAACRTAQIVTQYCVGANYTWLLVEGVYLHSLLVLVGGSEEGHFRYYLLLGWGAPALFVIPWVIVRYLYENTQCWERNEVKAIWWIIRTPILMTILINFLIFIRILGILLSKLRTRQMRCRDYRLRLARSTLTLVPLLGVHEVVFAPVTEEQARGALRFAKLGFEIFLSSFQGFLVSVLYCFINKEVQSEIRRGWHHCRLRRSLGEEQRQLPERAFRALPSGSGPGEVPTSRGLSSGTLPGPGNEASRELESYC
Nature of the assay: Functional in vitro GIPR antagonist potency assay (cAMP HTRF, CHO-K1 cells stably expressing hGIPR, hGIP stimulation at about EC80). The class given is cell-based. The conditions noted are these: geometric mean, hGIP at estimated EC80, examples marked ^2: overall geometric mean of multiple forms (including salts) tested. Put shortly:
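HTRF quantification of cAMP after stimulation with hGIP at an estimated EC80 for 30 min at 37 °C. Before stimulation, hGIPR-expressing CHO-K1 cells were exposed 2 h to test compound in IBMX-containing buffer, with 0.5% DMSO final. Percent effect is referenced to agonist alone (0%) and to 80 μM of a reference antagonist (100%), and runs required the agonist concentration to fall within the on-the-day EC50–EC90.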
The term IC50 denotes the point on the concentration scale where inhibition reaches its midpoint. As for `O=C(O)c1ccc(-c2ccc(NC(=O)[C@H]3CCCN3C(=O)NCc3cnc(C(F)(F)F)nc3)cc2)cc1` [Example 108, 4′-{[1-({[2-(trifluoromethyl)pyrimidin-5-yl]methyl}carbamoyl)-D-prolyl]amino}[1,1′-biphenyl]-4-carboxylic acid], the IC50 is 260 nM.

Turning to `CC(C)c1ccc(CNC(=O)N2CCC[C@@H]2C(=O)Nc2ccc(-c3ccc(C(=O)O)cc3)cc2)cc1` [Example 109, 4′-{[1-{{[4-(propan-2-yl)phenyl]methyl}carbamoyl)-D-prolyl]amino}[1,1′-biphenyl]-4-carboxylic acid], the half-maximal inhibitory concentration (IC50) was 5.1 nM. Under `O=C(O)c1ccc(-c2ccc(NC(=O)[C@H]3CCCN3C(=O)Nc3ccc(Cl)c(C(F)(F)F)c3)cc2)cc1` [Example 110, 4′-[(1-{[4-chloro-3-(trifluoromethyl)phenyl]carbamoyl}-D-prolyl)amino][1,1′-biphenyl]-4-carboxylic acid] stands 3.7 nM; under `CCC(C)c1ccc(NC(=O)N2CCC[C@@H]2C(=O)Nc2ccc(-c3ccc(C(=O)O)cc3)cc2)cc1` (stereo partly drawn) [Example 111, 4′-[(1-{[4-(butan-2-yl)phenyl]carbamoyl}-D-prolyl)amino][1,1′-biphenyl]-4-carboxylic acid], 11 nM; under `CC(C)c1ncc(NC(=O)N2CCC[C@@H]2C(=O)Nc2ccc(-c3ccc(C(=O)O)cc3)cc2)cn1` [Example 112, 4′-[(1-{[2-(propan-2-yl)pyrimidin-5-yl]carbamoyl}-D-prolyl)amino][1,1′-biphenyl]-4-carboxylic acid], 840 nM. Regarding `O=C(O)c1ccc(-c2ccc(NC(=O)[C@H]3CCCN3C(=O)NCc3cc(Cl)cc(Cl)c3)cc2)cc1` [Example 113, 4′-[(1-{[(3,5-dichlorophenyl)methyl]carbamoyl}-D-prolyl)amino][1,1′-biphenyl]-4-carboxylic acid], the half-inhibitory concentration (IC50) was 21 nM. `O=C(O)c1ccc(-c2ccc(NC(=O)[C@H]3CCCN3C(=O)Nc3ccc(C4CCCCC4)cc3)cc2)cc1` [Example 114, 4′-({1-[(4-cyclohexylphenyl)carbamoyl]-D-prolyl}amino)[1,1′-biphenyl]-4-carboxylic acid]: the half-maximal inhibitory concentration (IC50) was 40 nM. Regarding `O=C(O)c1ccc(-c2ccc(NC(=O)[C@H]3CCCN3C(=O)Nc3ccc(C4CCCC4)cc3)cc2)cc1` [Example 115, 4′-({1-[(4-cyclopentylphenyl)carbamoyl]-D-prolyl}amino)[1,1′-biphenyl]-4-carboxylic acid], the concentration for half-maximal inhibition (IC50) is 4.8 nM. Under `O=C(O)c1ccc(-c2ccc(NC(=O)[C@H]3CCCN3C(=O)NCc3ccc(Cl)c(Cl)c3)cc2)cc1` [Example 116, 4′-[(1-{[(3,4-dichlorophenyl)methyl]carbamoyl}-D-prolyl)amino][1,1′-biphenyl]-4-carboxylic acid] stands 12 nM; under `CC(C)c1ccc(NC(=O)N2CCC[C@@H]2C(=O)Nc2ccc(-c3ccc(C(=O)O)cc3)cc2)c(F)c1` [Example 117, 4′-[(1-{[2-fluoro-4-(propan-2-yl)phenyl]carbamoyl}-D-prolyl)amino][1,1′-biphenyl]-4-carboxylic acid], 26 nM; under `CCc1ccc(NC(=O)N2CCC[C@@H]2C(=O)Nc2ccc(-c3ccc(C(=O)O)cc3)cc2)cc1` [Example 118, 4′-({1-[(4-ethylphenyl)carbamoyl]-D-prolyl}amino)[1,1′-biphenyl]-4-carboxylic acid], 15 nM. As for `CC(C)(C)c1ccc(NC(=O)N2CCC[C@@H]2C(=O)Nc2ccc(-c3ccc(C(=O)O)cc3)cc2)cc1` [Example 119, 4′-({1-[(4-tert-butylphenyl)carbamoyl]-D-prolyl}amino)[1,1′-biphenyl]-4-carboxylic acid], the figure is 24 nM; as for `COc1nc(C(=O)O)ccc1-c1ccc(NC(=O)[C@H]2CCCN2C(=O)Nc2ccc(C(C)C)cc2)cc1` [Example 120, 6-methoxy-5-{4-[(1-{[4-(propan-2-yl)phenyl]carbamoyl}-D-prolyl)amino]phenyl}pyridine-2-carboxylic acid], 26 nM; as for `CC(C)c1ccc(NC(=O)N2CCC[C@@H]2C(=O)Nc2cnc(-c3ccc(C(=O)O)cc3)cn2)cc1` [Example 121, 4-{5-[(1-{[4-(propan-2-yl)phenyl]carbamoyl}-D-prolyl)amino]pyrazin-2-yl}benzoic acid], 27 nM. As for `O=C(O)c1ccc(-c2ccc(NC(=O)[C@H]3CCCN3C(=O)Nc3ccc(C4CC4)cc3)cc2)cn1` [Example 122, 5-[4-({1-[(4-cyclopropylphenyl)carbamoyl]-D-prolyl}amino)phenyl]pyridine-2-carboxylic acid], the figure is 99 nM; as for `CC(C)c1ccc(NC(=O)N2C[C@H]3C[C@H]3[C@@H]2C(=O)Nc2ccc(-c3ccc(C(=O)O)cc3)cn2)cc1` [Example 123, 4-(6-{[(1R,2R,5S)-3-{[4-(propan-2-yl)phenyl]carbamoyl}-3-azabicyclo[3.1.0]hexane-2-carbonyl]amino}pyridin-3-yl)benzoic acid], 11 nM. `O=C(O)c1ccc(-c2ccc(NC(=O)[C@H]3CCCN3C(=O)NCc3ccc(F)c(Cl)c3)cc2)cc1` [Example 124, 4′-[(1-{[(3-chloro-4-fluorophenyl)methyl]carbamoyl}-D-prolyl)amino][1,1′-biphenyl]-4-carboxylic acid]: the IC50 was 74 nM. As for `CC(C)(C)c1ccc(CNC(=O)N2CCC[C@@H]2C(=O)Nc2ccc(-c3ccc(C(=O)O)cc3)cc2)cc1` [Example 125, 4′-[(1-{[(4-tert-butylphenyl)methyl]carbamoyl}-D-prolyl)amino][1,1′-biphenyl]-4-carboxylic acid], the figure is 19 nM.

In the case of `O=C(O)c1ccc(-c2ccc(NC(=O)[C@H]3CCCN3C(=O)NCc3ccc(C(F)(F)F)c(F)c3)cc2)cc1` [Example 126, 4′-{[1-({[3-fluoro-4-(trifluoromethyl)phenyl]methyl}carbamoyl)-D-prolyl]amino}[1,1′-biphenyl]-4-carboxylic acid], the IC50 is 6.6 nM. Regarding `CC(C)c1ccc(CNC(=O)N2CCC[C@@H]2C(=O)Nc2ccc(-c3ccc(C(=O)O)cc3)cc2)c(F)c1` [Example 127, 4′-{[1-({[2-fluoro-4-(propan-2-yl)phenyl]methyl}carbamoyl)-D-prolyl]amino}[1,1′-biphenyl]-4-carboxylic acid], the concentration for half-maximal inhibition (IC50) was 69 nM.

For the molecule `O=C(O)c1ccc(-c2ccc(NC(=O)[C@H]3CCCN3C(=O)Nc3cc(F)c(C(F)(F)F)c(F)c3)cc2)cc1` [Example 128, 4′-[(1-{[3,5-difluoro-4-(trifluoromethyl)phenyl]carbamoyl}-D-prolyl)amino][1,1′-biphenyl]-4-carboxylic acid], the 50% inhibitory concentration (IC50) was 9.3 nM. As for `Cc1ccc(CNC(=O)N2CCC[C@@H]2C(=O)Nc2ccc(-c3ccc(C(=O)O)cc3)cc2)cc1F` [Example 129, 4′-[(1-{[(3-fluoro-4-methylphenyl)methyl]carbamoyl}-D-prolyl)amino][1,1′-biphenyl]-4-carboxylic acid], the figure is 14 nM; as for `O=C(O)c1ccc(-c2ccc(NC(=O)[C@H]3CCCN3C(=O)NCc3ccc(C(F)(F)F)c(Cl)c3)cc2)cc1` [Example 130, 4′-{[1-({[3-chloro-4-(trifluoromethyl)phenyl]methyl}carbamoyl)-D-prolyl]amino}[1,1′-biphenyl]-4-carboxylic acid], 11 nM. As for `O=C(O)c1ccc(-c2ccc(NC(=O)[C@H]3CCCN3C(=O)NCc3ccc(C(F)(F)F)cc3F)cc2)cc1` [Example 131, 4′-{[1-({[2-fluoro-4-(trifluoromethyl)phenyl]methyl}carbamoyl)-D-prolyl]amino}[1,1′-biphenyl]-4-carboxylic acid], the figure is 140 nM. `O=C(O)c1ccc(-c2ccc(NC(=O)[C@H]3CCCN3C(=O)NCc3ccc(Cl)cc3F)cc2)cc1` [Example 132, 4′-[(1-{[(4-chloro-2-fluorophenyl)methyl]carbamoyl}-D-prolyl)amino][1,1′-biphenyl]-4-carboxylic acid]: the IC50 was 77 nM. As for `O=C(O)c1ccc(-c2ccc(NC(=O)[C@H]3CCCN3C(=O)NCc3c(F)cc(Cl)cc3F)cc2)cc1` [Example 133, 4′-[(1-{[(4-chloro-2,6-difluorophenyl)methyl]carbamoyl}-D-prolyl)amino][1,1′-biphenyl]-4-carboxylic acid], the figure is 180 nM. As for `COc1cc(C(F)(F)F)ccc1NC(=O)N1CCC[C@@H]1C(=O)Nc1ccc(-c2ccc(C(=O)O)cc2)cc1` [Example 134, 4′-[(1-{[2-methoxy-4-(trifluoromethyl)phenyl]carbamoyl}-D-prolyl)amino][1,1′-biphenyl]-4-carboxylic acid], the figure is 140 nM.

With `CC(C)c1ccc(NC(=O)N2CCC[C@@H]2C(=O)Nc2ccc(-c3ccc(C(=O)O)cc3)cc2)c(Cl)c1` [Example 135, 4′-[(1-{[2-chloro-4-(propan-2-yl)phenyl]carbamoyl}-D-prolyl)amino][1,1′-biphenyl]-4-carboxylic acid], the half-inhibitory concentration (IC50) is 52 nM. As for `O=C(O)c1ccc(-c2ccc(NC(=O)[C@H]3CCCN3C(=O)NCc3ccc(C4CC4)cc3)cc2)cc1` [Example 136, 4′-[(1-{[(4-cyclopropylphenyl)methyl]carbamoyl}-D-prolyl)amino][1,1′-biphenyl]-4-carboxylic acid], the figure is 7.8 nM.
